Where two headings read alike, the source gives them in different places. Positions of bridges follow the written chain, without caps; N, C: chain ends. Non-standard residues stand in square brackets, D forms with d. Residues, ends and D or L forms follow the SMILES beside them. ξ: configuration not given here. Phe(3,4,5-F3) = N[C@@H](Cc1cc(F)c(F)c(F)c1)C(=O)O; Pro(4R-NH2) = N[C@H]1CN[C@H](C(=O)O)C1; d(cisHyp) = O=C(O)[C@H]1C[C@@H](O)CN1; Hyp = O=C(O)[C@@H]1C[C@@H](O)CN1; NMeF = CN[C@@H](Cc1ccccc1)C(=O)O; dHyp = O=C(O)[C@H]1C[C@H](O)CN1; dNMeNle = CCCC[C@@H](NC)C(=O)O; NMeNle = CCCC[C@H](NC)C(=O)O; Pip = O=C(O)[C@@H]1CCCCN1; dPip = O=C(O)[C@H]1CCCCN1; NMeA = CN[C@@H](C)C(=O)O; dDap = NC[C@@H](N)C(=O)O; Dab = NCC[C@H](N)C(=O)O; ξP = O=C(O)C1CCCN1
Key:
Human PD-L1/PD-1 = molecular target: T1, Human PD-L1/PD-1 (Homo sapiens, UniProt Q9NZQ7); test: HTRF PD-1-Ig/PD-L1-His binding assay (human PD-L1)
T1 construct: made in house; host or cells: HEK293T
T1 sequence (Q9NZQ7 with tags, fused parts or gaps): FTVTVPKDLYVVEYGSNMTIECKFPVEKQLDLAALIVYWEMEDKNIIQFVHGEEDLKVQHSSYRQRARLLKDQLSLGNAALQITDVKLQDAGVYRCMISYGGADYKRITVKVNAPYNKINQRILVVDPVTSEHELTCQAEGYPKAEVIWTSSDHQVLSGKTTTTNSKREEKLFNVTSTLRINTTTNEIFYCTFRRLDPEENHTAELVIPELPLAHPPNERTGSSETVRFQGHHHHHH
Summary of the method: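 Ig- and His-fused extracellular PD-1/PD-L1 binding in BSA/Tween-20 dPBS. HTRF with Eu anti-Ig (1 nM final) and APC anti-His (20 nM final).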

CMV-specific T cells = CMV-specific T cells (Homo sapiens, UniProt Q9NZQ7); test: CMV-specific T cell function assay (IFNγ secretion, ELISA); format: cell-based
CMV-specific T cells, sequence (Q9NZQ7 19-290): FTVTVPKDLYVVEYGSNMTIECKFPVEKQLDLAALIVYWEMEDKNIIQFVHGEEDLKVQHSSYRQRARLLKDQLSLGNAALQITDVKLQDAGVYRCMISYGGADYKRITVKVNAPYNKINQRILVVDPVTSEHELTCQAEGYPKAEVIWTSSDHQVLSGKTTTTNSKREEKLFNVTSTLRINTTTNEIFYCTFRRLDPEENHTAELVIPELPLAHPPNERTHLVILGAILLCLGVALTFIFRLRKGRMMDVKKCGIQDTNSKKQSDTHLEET
Protocol: CMV-specific T Cell Function Assay. […] AIM-V medium (Life Technologies, Grand Island, N.Y.) supplemented with 10% heat-inactivated fetal bovine serum (FBS, Sigma, St Louis, Mo.) was used at a total volume of 200 µL/well in triplicate. The cells were cultured for 4 days at 37° C., 5% CO2 at which time culture supernatant was harvested for determination of secreted IFNγ by ELISA (OptEIA hIFNγ ELISA Kit, BD Biosciences, San Jose, Calif.).

[1] = molecular target: T2, LK35.2-hPD-L1 cells / PE-labeled PD-1-Ig (Homo sapiens, UniProt Q9NZQ7); test: LK35.2-hPD-L1 cell binding high-content screening assay; format: cell-based
T2 construct: expressed in transfected cells; host or cells: LK35.2 mouse B cell line
T2 sequence (Q9NZQ7 19-290): as above
Summary of the method: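 Mouse LK35.2 B cells stably over-expressing human PD-L1, cultured overnight, treated with compound plus PE-labeled human PD-1-Ig (1 nM final) in RPMI/10% FCS for 1 h at 37 °C. After washing, bound fluorescence quantified by high-content imaging.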

[2] = cluster symbol, read-out: HTRF IC50 cluster
[3] = read-out: CMV Recall EC50 value
[4] = cell line of CBA not given (LK35.2-hPD-L1 or 293T-hPD-L1), read-out: CBA IC50 value
[5] = value given instead of cluster, read-out: HTRF IC50 value
[6] = value given instead of cluster, read-out: CMV Recall EC50 value
[7] = cell binding assay, cell line not given, value given instead of cluster, read-out: CBA IC50 value

| SMILES | IC50 (Human PD-L1/PD-1; [2]) [nM] | IC50 (Human PD-L1/PD-1; read-out: HTRF IC50 value) [nM] | EC50 (CMV-specific T cells; [3]) [nM] | IC50 [1, 4] [nM] | IC50 (Human PD-L1/PD-1; [5]) [nM] | EC50 (CMV-specific T cells; [6]) [nM] | IC50 [1, 7] [nM] | other results |
| --- | --- | --- | --- | --- | --- | --- | --- | --- |
| CCCC[C@H]1C(=O)N2C[C@H](O)C[C@@H]2C(=O)N[C@@H](CC(=O)O)C(=O)N[C@@H](C(C)C)C(=O)N(C)[C@@H](Cc2ccccc2)C(=O)N[C@@H](Cc2ccc(O)cc2)C(=O)N2CCCC[C@@H]2C(=O)N[C@@H](Cc2c[nH]c3ccccc23)C(=O)N[C@@H](Cc2ccc(O)cc2)C(=O)N[C@@H](CC(C)C)C(=O)N[C@H](C(=O)NCC(N)=O)CSCC(=O)N[C@@H](Cc2cc(F)c(F)c(F)c2)C(=O)N(C)[C@@H](Cc2ccccc2)C(=O)N1C [Example 3590] ({CH2CO}-[Phe(3,4,5-F3)][NMeF][NMeNle][d(cisHyp)]DV[NMeF]Y[dPip]WYLCG-NH2; thioether N-13) | 0.385 to 6.74 | – | – | – | – | – | – | EC50 (CMV-specific T cells; read-out: CMV Recall EC50 cluster, cluster symbol): 1000 nM; IC50 ([1]; cell binding assay, cell line not given, cluster symbol, read-out: CBA IC50 cluster): 0.158 to 4.71 nM |
| CCCC[C@H]1C(=O)N(C)[C@@H](CCCC)C(=O)N[C@@H](CCCNC(=N)N)C(=O)N[C@H](C(=O)NCC(N)=O)CSCC(=O)N[C@@H](Cc2ccc(O)cc2)C(=O)N2CCCC[C@H]2C(=O)N[C@@H](CC(N)=O)C(=O)N2CCC[C@H]2C(=O)N[C@@H](Cc2cnc[nH]2)C(=O)N[C@@H](CCC(=O)O)C(=O)N2C[C@H](O)C[C@H]2C(=O)N[C@@H](Cc2c[nH]c3ccccc23)C(=O)N[C@@H](CO)C(=O)N[C@@H](Cc2c[nH]c3ccccc23)C(=O)N1C [Example 1237] ({CH2CO}-Y[Pip]NPHE[Hyp]WSW[NMeNle][NMeNle]RCG-NH2; thioether N-14) | – | 16.5 | 21.9 | 4.92 | – | – | – | – |
| CCCC[C@@H]1C(=O)N(C)[C@H](CCCC)C(=O)N[C@@H](C)C(=O)N[C@@H](C(=O)NCC(N)=O)CSCC(=O)N[C@@H](Cc2ccc(O)cc2)C(=O)N2CCCC2C(=O)N[C@H](CC(=O)O)C(=O)N2CCC[C@H]2C(=O)N[C@H](CN)C(=O)N[C@@H](CC(=O)O)C(=O)N2CCCC2C(=O)N[C@H](Cc2c[nH]c3ccccc23)C(=O)N[C@@H](CCN)C(=O)N[C@@H](Cc2c[nH]c3ccccc23)C(=O)N1C (stereo partly drawn) [Example 1210] ({CH2CO}-Y[ξP][dD]P[dDap]D[ξP][dW][Dab]W[dNMeNle][dNMeNle]A[dC]G-NH2; thioether N-14) | > 30.5 | – | > 2500 | – | – | – | – | IC50 ([1]; cluster symbol, cell line of CBA not given (LK35.2-hPD-L1 or 293T-hPD-L1), read-out: CBA IC50 cluster): > 74.3 nM |
| CCCC[C@H]1C(=O)N2CCC[C@@H]2C(=O)N2C[C@H](N)C[C@H]2C(=O)N[C@@H](C(C)C)C(=O)N(C)[C@@H](Cc2ccccc2)C(=O)N[C@@H](Cc2ccc(O)cc2)C(=O)N2CCCC[C@@H]2C(=O)N[C@@H](Cc2c[nH]c3ccccc23)C(=O)N[C@@H](Cc2ccc(O)cc2)C(=O)N[C@@H](CC(C)C)C(=O)N[C@H](C(=O)NCC(N)=O)CSCC(=O)N[C@@H](Cc2cc(F)c(F)c(F)c2)C(=O)N(C)[C@@H](Cc2ccccc2)C(=O)N1C [Example 3194] ({CH2CO}-[Phe(3,4,5-F3)][NMeF][NMeNle][dP][Pro(4R-NH2)]V[NMeF]Y[dPip]WYLCG-NH2; thioether N-13) | – | 4.39 | 25.2 | 1.15 | – | – | – | – |
| CCCC[C@H]1C(=O)N2C[C@@H](O)C[C@@H]2C(=O)N[C@@H](CC(=O)O)C(=O)N[C@@H](C(C)C)C(=O)N(C)[C@@H](Cc2ccccc2)C(=O)N[C@@H](Cc2ccc(O)cc2)C(=O)N2CCCC[C@@H]2C(=O)N[C@@H](Cc2c[nH]c3ccccc23)C(=O)N[C@@H](Cc2ccc(O)cc2)C(=O)N[C@@H](CC(C)C)C(=O)N[C@H](C(=O)NCC(N)=O)CSCC(=O)N[C@@H](Cc2cc(F)c(F)c(F)c2)C(=O)N(C)[C@@H](Cc2ccccc2)C(=O)N1C [Example 3592] ({CH2CO}-[Phe(3,4,5-F3)][NMeF][NMeNle][dHyp]DV[NMeF]Y[dPip]WYLCG-NH2; thioether N-13) | – | – | – | – | 4 | 0.62 | 0.158 | – |
| CCCC[C@H]1C(=O)N(C)[C@@H](CCCC)C(=O)N[C@@H](CCN)C(=O)N[C@H](C(=O)NCC(N)=O)CSCC(=O)N[C@@H](Cc2ccc(O)cc2)C(=O)N(C)[C@@H](C)C(=O)N[C@@H](CCN)C(=O)N2CCC[C@H]2C(=O)N[C@@H](Cc2c[nH]cn2)C(=O)N[C@@H](CCC(=O)O)C(=O)N2C[C@H](O)C[C@H]2C(=O)N[C@@H](Cc2c[nH]c3ccccc23)C(=O)N[C@@H](CO)C(=O)N[C@@H](Cc2c[nH]c3ccccc23)C(=O)N1C [Example 5093] ({CH2CO}-Y[NMeA][Dab]PHE[Hyp]WSW[NMeNle][NMeNle][Dab]CG-NH2; thioether N-14) | – | – | – | – | 6.76 | 100 | 3.14 | – |
